Reference: patent publication US11548890B1, “HPK1 antagonists and uses thereof” (Nimbus Saturn, Inc., priority 2019, dated 2023)

Target: HPK1 (Homo sapiens (Human), UniProt Q92918)
Assay: HPK1 biochemical enzyme assay (microfluidic mobility shift assay)
Conditions: ATP 1 mM final concentration; 1.5 nM HPK1; 30 min preincubation; Caliper EZ Reader; read-out: HPK1 1000UMATP caliper IC50
Method: HPK1 biochemical enzyme assay: HPK1 enzyme inhibition was measured using a microfluidic mobility shift assay. […] Test compounds were titrated in ten point curves (top final assay concentration 3 μM), and preincubated with enzyme/substrate mix for 30 min prior to initiation of the reaction by addition of ATP (1 mM final concentration) and substrate (1 μM final concentration; Carna Biosciences) diluted in assay buffer supplemented by MgCl2 (final assay concentration of 5 mM). Following 60 min incubation at RT, the reaction was terminated by addition of 60 μl/well termination buffer (Carna Biosciences) and signal determination using a Caliper EZ Reader (Perkin Elmer, UK).
The compound numbers correspond to the compound numbers in Table 1.

Chain of HPK1 (Q92918 whole entry): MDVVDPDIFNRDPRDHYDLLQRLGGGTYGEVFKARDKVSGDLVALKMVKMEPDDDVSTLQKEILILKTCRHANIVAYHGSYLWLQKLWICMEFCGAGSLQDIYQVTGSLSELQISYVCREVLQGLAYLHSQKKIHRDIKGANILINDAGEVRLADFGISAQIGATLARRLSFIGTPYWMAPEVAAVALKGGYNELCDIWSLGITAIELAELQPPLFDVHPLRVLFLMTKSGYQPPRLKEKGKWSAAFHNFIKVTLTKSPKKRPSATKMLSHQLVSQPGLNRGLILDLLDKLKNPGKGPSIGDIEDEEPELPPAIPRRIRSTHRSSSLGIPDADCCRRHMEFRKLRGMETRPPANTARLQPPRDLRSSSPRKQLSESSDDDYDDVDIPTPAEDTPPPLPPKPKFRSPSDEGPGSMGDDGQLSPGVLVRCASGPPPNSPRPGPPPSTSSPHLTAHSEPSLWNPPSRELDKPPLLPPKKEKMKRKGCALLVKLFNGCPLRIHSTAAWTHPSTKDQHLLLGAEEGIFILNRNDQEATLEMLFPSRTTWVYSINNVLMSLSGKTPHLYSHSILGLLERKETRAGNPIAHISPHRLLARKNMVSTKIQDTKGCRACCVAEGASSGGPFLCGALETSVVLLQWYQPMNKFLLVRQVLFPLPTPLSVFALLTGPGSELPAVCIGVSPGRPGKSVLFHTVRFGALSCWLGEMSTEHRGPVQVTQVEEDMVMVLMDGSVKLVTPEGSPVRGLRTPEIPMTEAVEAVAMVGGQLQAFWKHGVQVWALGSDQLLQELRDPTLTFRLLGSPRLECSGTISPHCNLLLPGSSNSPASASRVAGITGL

Compound | IC50 [nM]
7-((6-((dimethylamino)methyl)-4-(tetrahydrofuran-2-yl)pyridin-2-yl)amino)-4-(7-fluoroimidazo[1,2-a]pyridin-3-yl)isoindolin-1-one [I-852] | < 100
CC(C)(N)[C@H]1CN(c2ccc(Nc3ccc(-c4cnc5cc(F)ccn45)c4c3C(=O)NC4)nc2)CCO1 (single isomer, unassigned) [I-671] | < 100
Cn1ccc2c(-c3ncc(Nc4ccc(N5CCC(O)CC5)cn4)c4c3CNC4=O)ccnc21 [I-139, 7-[[5-(4-hydroxy-1-piperidyl)-2-pyridyl]amino]-4-(1-methylpyrrolo [2,3-b]pyridin-4-yl)-2,3-dihydropy-rrolo[3,4-c]pyridin-1-one] | < 100
Cc1ccn2c(-c3ccc(Nc4ccc(N5CCOCC5)cn4)c4c3CNC4=O)cnc2c1 [I-145, 4-(7-methylimidazo [1,2-a]pyridin-3-yl)-7-[(5-morpholino-2-pyridyl)amino] isoindolin-1-one] | < 100
Cn1ccc2c(-c3ncc(Nc4ccc(N5CCOCC5)cn4)c4c3CNC4=O)cccc21 [I-221, 4-(1-methylindol-4-yl)-7-[(5-morpholino-2-pyridyl)amino]-2,3-dihydropy-rrolo[3,4-c]pyridin-1-one] | < 100
O=C1NCc2c(-c3cnc4cc(F)ccn34)ccc(Nc3ccc(N4CCO[C@@H](CNC5CC5)C4)cn3)c21 [I-495, 7-[[5-[(2S)-2-[(cyclopropyl-amino)methyl]morpholin-4-yl]-2-pyridyl]amino]-4-(7-fluoroimidazo [1,2-a]pyridin-3-yl)isoindolin-1-one] | < 100
C[C@H](c1ccc(Nc2ccc(-c3cnc4cc(F)ccn34)c3c2C(=O)NC3)nc1)N(C)C [I-521, (R)-7-((5-(1-(dimethylamino)-ethyl)pyridin-2-yl)amino)-4-(7-fluoroimidazo [1,2-a]pyridin-3-yl)isoindolin-1-one] | < 100
CO[C@H]1CC[C@H](c2ccc(Nc3ccc(-c4cnc5cc(F)ccn45)c4c3C(=O)NC4)nc2CN(C)C)C1 [I-793, 7-((6-((dimethylamino)-methyl)-5-((1S,3S)-3-methoxycyclo-pentyl)pyridin-2-yl)amino)-4-(7-fluoroimidazo [1,2-a]pyridin-3-yl)isoindolin-1-one] | < 100
CN(C)Cc1nc(Nc2ccc(-c3cnc4cc(F)ccn34)c3c2C(=O)NC3)ccc1OCC(F)F [I-835, 7-((5-(2,2-difluoroethoxy)-6-((dimethylamino)methyl)pyridin-2-yl)amino)-4-(7-fluoroimidazo[1,2-a]pyridin-3-yl)isoindolin-1-one] | < 100
(R)-7-((5-(2- (methoxymeth- yl)morpholino) pyridin-2- yl)amino)-4- (7- methylimidazo [1,2- a]pyrimidin-3- yl)isoindolin- 1-one [I-628] | < 100
